Each compound was assayed against T1, human GPR40 (Homo sapiens, UniProt O14842) (assay: Inositol Phosphate Turnover (IP1) Assay 2). Details: HEK cells stably expressing human GPR40; compound acoustically transferred; 60 minutes at 37 degrees.
T1 construct: expressed in transfected cells; host or cells: HEK cells stably expressing the aequorin reporter
Format: cell-based
Description: Human and mouse GPR40 stable cell-lines were generated in CHO cells stably expressing NFAT BLA (Beta-lactamase). A human GPR40 stable cell-line was generated in HEK cells stably expressing the aequorin expressing reporter. The expression plasmids were transfected using lipofectamine (Life Technologies) following manufacturer's instructions. Stable cell-lines were generated following drug selection.
The assay is performed in 384-well format. HEK cells stably expressing human GPR40 are plated at 15,000 cells per well in growth medium (DMEM/10% fetal calf serum). Cell plates are then incubated 16 hours at 37 degrees in a 5% CO2 incubator.
Measurement of Inositol Phosphate Turnover (IP1) is performed using the CisBio IP-One kit (Part number 62IPAPEB). After the 16 hour incubation, the cells are washed with HEPES buffer and 10 ul of stimulation buffer (prepared as described in the kit) is added to each well. In a separate plate, compounds are diluted in DMSO (400-fold over the final concentration in the assay well) and 25 nl is acoustically transferred to the appropriate well in the assay cell plate. The plates were then incubated for 60 minutes at 37 degrees. 10 ul of detection buffer (also prepared as described in the IP-One kit) is added to each well and the plates are incubated for 60 minutes in the dark. The plates are then read in a Perkin Elmer EnVision or equivalent reader able to measure FRET. Fluorescent ratio of emission at 665 and 620 nm is then converted to IP1 concentration by back calculating from an IP1 standard curve prepared at the time of the assay.

T1 sequence (O14842 whole entry): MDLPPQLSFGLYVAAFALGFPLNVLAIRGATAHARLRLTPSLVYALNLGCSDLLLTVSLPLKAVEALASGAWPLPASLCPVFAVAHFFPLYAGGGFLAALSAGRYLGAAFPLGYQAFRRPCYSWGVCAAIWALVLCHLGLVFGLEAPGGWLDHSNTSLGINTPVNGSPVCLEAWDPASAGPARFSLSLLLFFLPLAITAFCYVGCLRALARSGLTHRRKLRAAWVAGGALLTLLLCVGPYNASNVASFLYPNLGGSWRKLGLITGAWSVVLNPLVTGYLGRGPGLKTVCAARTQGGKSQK

Compared with `COc1ccc(F)c(-c2ccc([C@H]3Cc4cc([C@H](C5CC5)[C@H](C)C(=O)O)ccc4CO3)cc2)c1` [Example 22, (2S,3R)-3-cyclopropyl-3-((R)-3-(2′-fluoro-5′-methoxy-1,1′-biphenyl-4-yl)isochroman-6-yl)-2-methylpropanoic acid], `COc1cc(-c2ccc([C@@H]3Cc4cc([C@H](C5CC5)[C@H](C)C(=O)O)ccc4CO3)c(F)c2)ccn1` [Example 38A, (2S,3R)-3-cyclopropyl-3-((S)-3-(2-fluoro-4-(2-methoxypyridin-4-yl)phenyl)isochroman-6-yl)-2-methylpropanoic acid] is 8.4-fold higher in EC50: 0.5 nM for the first, 4.2 nM for the second. The first is the more potent here.

Going from `COc1cc(-c2ccc([C@H]3Cc4cc([C@H](C5CC5)[C@H](C)C(=O)O)ccc4CO3)c(F)c2)ccn1` [Example 38B, (2S,3R)-3-cyclopropyl-3-((R)-3-(2-fluoro-4-(2-methoxy-pyridin-4-yl)phenyl)isochroman-6-yl)-2-methylpropanoic acid] to `C[C@H](C(=O)O)[C@H](c1ccc2c(c1)CC(C1CCN(c3ncccc3C(F)(F)F)CC1)OC2)C1CC1` (stereo partly drawn) [Example 40, (2S,3R)-3-cyclopropyl-2-methyl-3-(3-(1-(3-(trifluoromethyl)pyridin-2-yl)piperidin-4-yl)isochroman-6-yl)propanoic acid], the EC50 rises from 24.5 nM to 54 nM (2.2-fold). The first is the more potent here.

— patent US10662171B2, “Antidiabetic bicyclic compounds” (Merck Sharp & Dohme Corp., priority 2014, dated 2020)
